Reference: ChEMBL document CHEMBL4828721, “Substituted dienes prepared from betulinic acid - Synthesis, cytotoxicity, mechanism of action, and pharmacological parameters” (Eur J Med Chem, 2021)

Experiments:
[1] = test system: CEM-DNR; experiment: Cytotoxicity against daunorubicin resistant human CEM-DNR cells assessed as reduction in cell viability measured after 72 hrs by MTS assay; format: functional, cell-based
[2] = test system: CCRF-CEM; experiment: Cytotoxicity against human CCRF-CEM cells assessed as reduction in cell viability measured after 72 hrs by MTS assay; format: functional, cell-based
[3] = test system: U2OS; experiment: Cytotoxicity against human U2OS cells assessed as reduction in cell viability measured after 72 hrs by MTS assay; format: functional, cell-based
[4] = test system: HCT-116; experiment: Cytotoxicity against human HCT-116 cells assessed as reduction in cell viability measured after 72 hrs by MTS assay; format: functional, cell-based; conditions: HCT-116, 72 h
[5] = Cytotoxicity against human HCT116 p53-null cells assessed as reduction in cell viability measured after 72 hrs by MTS assay; format: functional, cell-based
[6] = test system: K562; experiment: Cytotoxicity against human K562 cells assessed as reduction in cell viability measured after 72 hrs by MTS assay; format: functional, cell-based; conditions: K562, 72 h
[7] = Cytotoxicity against paclitaxel resistant human K562-Tax cells assessed as reduction in cell viability measured after 72 hrs by MTS assay; format: functional, cell-based
[8] = test system: MRC5; experiment: Cytotoxicity against human MRC5 cells assessed as reduction in cell viability measured after 72 hrs by MTS assay; format: cell-based; conditions: MRC5, 72 h
[9] = test system: BJ; experiment: Cytotoxicity against human BJ cells assessed as reduction in cell viability measured after 72 hrs by MTS assay; format: cell-based
[10] = test system: A549; experiment: Cytotoxicity against human A549 cells assessed as reduction in cell viability measured after 72 hrs by MTS assay; format: functional, cell-based; conditions: A549, 72 h

SMILES | IC50 [1] [µM] | IC50 [2] [µM] | IC50 [3] [µM] | IC50 [4] [µM] | IC50 [5] [µM] | IC50 [6] [µM] | IC50 [7] [µM] | IC50 [8] [µM] | IC50 [9] [µM] | IC50 [10] [µM]
C=C(/C=C/c1cccnc1)[C@@H]1CC[C@]2(C(=O)O)CC[C@]3(C)[C@H](CC[C@@H]4[C@@]5(C)CC[C@H](O)C(C)(C)[C@@H]5CC[C@]43C)[C@@H]12 | 17.4 | 11.3 | 30.9 | 30.9 | 32.8 | > 50 | 14.2 | > 50 | > 50 | 26.2
C=C(/C=C/c1cccc(Br)c1)[C@@H]1CC[C@]2(C(=O)O)CC[C@]3(C)[C@H](CC[C@@H]4[C@@]5(C)CC[C@H](O)C(C)(C)[C@@H]5CC[C@]43C)[C@@H]12 | 35.9 | 8.8 | 27.6 | 25.3 | 26.8 | 23.6 | 32.8 | > 50 | > 50 | 33.1
C=C(/C=C/c1ccccc1C)[C@@H]1CC[C@]2(C(=O)O)CC[C@]3(C)[C@H](CC[C@@H]4[C@@]5(C)CC[C@H](O)C(C)(C)[C@@H]5CC[C@]43C)[C@@H]12 | 22.8 | 19.1 | 28 | 29.7 | 25.9 | 28.1 | 25.9 | 31.5 | 33 | 26.8
C=C(/C=C/c1ccc(Br)cc1)[C@@H]1CC[C@]2(C(=O)O)CC[C@]3(C)[C@H](CC[C@@H]4[C@@]5(C)CC[C@H](O)C(C)(C)[C@@H]5CC[C@]43C)[C@@H]12 | 28.9 | 6.5 | 27 | 33.2 | 31.8 | > 50 | 29.3 | 35.2 | > 50 | > 50
C=C(/C=C/c1ccncc1)[C@@H]1CC[C@]2(C(=O)O)CC[C@]3(C)[C@H](CC[C@@H]4[C@@]5(C)CC[C@H](O)C(C)(C)[C@@H]5CC[C@]43C)[C@@H]12 | 20.5 | 5.9 | 29.7 | 35 | 30.6 | 43.4 | 20.6 | > 50 | > 50 | 46
C=C(/C=C/c1ccccc1Br)[C@@H]1CC[C@]2(C(=O)O)CC[C@]3(C)[C@H](CC[C@@H]4[C@@]5(C)CC[C@H](O)C(C)(C)[C@@H]5CC[C@]43C)[C@@H]12 | 49.1 | 16.8 | 27.8 | 27.2 | 24.5 | 21.6 | 47.9 | 35.3 | 46.7 | 28.6
C=C(/C=C/c1ccccc1C(F)(F)F)[C@@H]1CC[C@]2(C(=O)O)CC[C@]3(C)[C@H](CC[C@@H]4[C@@]5(C)CC[C@H](O)C(C)(C)[C@@H]5CC[C@]43C)[C@@H]12 | > 50 | 21.8 | 29.6 | 33 | 36.1 | 48.7 | > 50 | > 50 | > 50 | 37
C=C(/C=C/c1cccc(C(F)(F)F)c1)[C@@H]1CC[C@]2(C(=O)O)CC[C@]3(C)[C@H](CC[C@@H]4[C@@]5(C)CC[C@H](O)C(C)(C)[C@@H]5CC[C@]43C)[C@@H]12 | 28.1 | 8 | 24.6 | 23.1 | 24.8 | 26.5 | 25.1 | 42.9 | > 50 | 35.1
C=C(/C=C/c1ccccc1I)[C@@H]1CC[C@]2(C(=O)O)CC[C@]3(C)[C@H](CC[C@@H]4[C@@]5(C)CC[C@H](O)C(C)(C)[C@@H]5CC[C@]43C)[C@@H]12 | > 50 | 20.6 | 28.5 | 29.6 | 29.5 | 25.1 | > 50 | 29.5 | > 50 | 29.7
C=C(/C=C/c1ccc(F)c(Cl)c1)[C@@H]1CC[C@]2(C(=O)O)CC[C@]3(C)[C@H](CC[C@@H]4[C@@]5(C)CC[C@H](O)C(C)(C)[C@@H]5CC[C@]43C)[C@@H]12 | 27.8 | 5.5 | 26.5 | 21.8 | 20.8 | 40.6 | 25.2 | 32.4 | > 50 | 45.5
C=C(/C=C/c1cccc(OC)c1)[C@@H]1CC[C@]2(C(=O)O)CC[C@]3(C)[C@H](CC[C@@H]4[C@@]5(C)CC[C@H](O)C(C)(C)[C@@H]5CC[C@]43C)[C@@H]12 | 30.6 | 4.6 | 25.2 | 34.6 | 39.6 | 41.4 | 25.6 | 44.1 | > 50 | 40.1
C=C(/C=C/c1ccc(C(C)(C)C)cc1)[C@@H]1CC[C@]2(C(=O)O)CC[C@]3(C)[C@H](CC[C@@H]4[C@@]5(C)CC[C@H](O)C(C)(C)[C@@H]5CC[C@]43C)[C@@H]12 | > 50 | 45.6 | 45.1 | > 50 | > 50 | > 50 | > 50 | > 50 | > 50 | > 50
C=C(/C=C/c1ccccc1F)[C@@H]1CC[C@]2(C(=O)O)CC[C@]3(C)[C@H](CC[C@@H]4[C@@]5(C)CC[C@H](O)C(C)(C)[C@@H]5CC[C@]43C)[C@@H]12 | 23.2 | 15.4 | 27.7 | 24.5 | 22.6 | 21.8 | 25.1 | 31.7 | 42.1 | 29.7
C=C(/C=C/c1ccc(C)cc1)[C@@H]1CC[C@]2(C(=O)O)CC[C@]3(C)[C@H](CC[C@@H]4[C@@]5(C)CC[C@H](O)C(C)(C)[C@@H]5CC[C@]43C)[C@@H]12 | 26.1 | 5.9 | > 50 | 21.4 | 18.2 | > 50 | 26.3 | > 50 | > 50 | > 50
C=C(/C=C/c1ccccc1Cl)[C@@H]1CC[C@]2(C(=O)O)CC[C@]3(C)[C@H](CC[C@@H]4[C@@]5(C)CC[C@H](O)C(C)(C)[C@@H]5CC[C@]43C)[C@@H]12 | 42.1 | 18.7 | 28.1 | 26.6 | 24.8 | 23.9 | 39.3 | 32.6 | 42.3 | 29.4
C=C(/C=C/c1ccccc1C#N)[C@@H]1CC[C@]2(C(=O)O)CC[C@]3(C)[C@H](CC[C@@H]4[C@@]5(C)CC[C@H](O)C(C)(C)[C@@H]5CC[C@]43C)[C@@H]12 | 26.8 | 23.2 | 40.4 | 36.6 | 47 | > 50 | 24.8 | > 50 | > 50 | > 50
C=C(/C=C/c1cc(OC)cc(OC)c1)[C@@H]1CC[C@]2(C(=O)O)CC[C@]3(C)[C@H](CC[C@@H]4[C@@]5(C)CC[C@H](O)C(C)(C)[C@@H]5CC[C@]43C)[C@@H]12 | 13.7 | 10 | 22.3 | 17.3 | 20.8 | 22.2 | 16 | 29.2 | 47.6 | 19
C=C(/C=C/c1ccccc1[N+](=O)[O-])[C@@H]1CC[C@]2(C(=O)O)CC[C@]3(C)[C@H](CC[C@@H]4[C@@]5(C)CC[C@H](O)C(C)(C)[C@@H]5CC[C@]43C)[C@@H]12 | 30.6 | 23.7 | 33.1 | 34.8 | 39.3 | > 50 | 29.8 | > 50 | > 50 | 45.2
